Assay results taken from patent publication US8648105B2, “Diarylthiohydantoin compounds” (The Regents of the University of California, priority 2006, dated 2014).
Positions count from the first letter of the chain named.

Tests used:
[1] = tested on: LNCaP hormone sensitive xenograft; assay: LNCaP hormone sensitive xenograft model
Procedure: Each set included 6 mice. The mice were treated with 10 mg/kg per day.

androgen receptor = target: T1, androgen receptor (Homo sapiens, UniProt P10275, T878A); details: 10 uM (R1881 1 nM), LNCaP
T1 sequence (P10275 1-920 T878A): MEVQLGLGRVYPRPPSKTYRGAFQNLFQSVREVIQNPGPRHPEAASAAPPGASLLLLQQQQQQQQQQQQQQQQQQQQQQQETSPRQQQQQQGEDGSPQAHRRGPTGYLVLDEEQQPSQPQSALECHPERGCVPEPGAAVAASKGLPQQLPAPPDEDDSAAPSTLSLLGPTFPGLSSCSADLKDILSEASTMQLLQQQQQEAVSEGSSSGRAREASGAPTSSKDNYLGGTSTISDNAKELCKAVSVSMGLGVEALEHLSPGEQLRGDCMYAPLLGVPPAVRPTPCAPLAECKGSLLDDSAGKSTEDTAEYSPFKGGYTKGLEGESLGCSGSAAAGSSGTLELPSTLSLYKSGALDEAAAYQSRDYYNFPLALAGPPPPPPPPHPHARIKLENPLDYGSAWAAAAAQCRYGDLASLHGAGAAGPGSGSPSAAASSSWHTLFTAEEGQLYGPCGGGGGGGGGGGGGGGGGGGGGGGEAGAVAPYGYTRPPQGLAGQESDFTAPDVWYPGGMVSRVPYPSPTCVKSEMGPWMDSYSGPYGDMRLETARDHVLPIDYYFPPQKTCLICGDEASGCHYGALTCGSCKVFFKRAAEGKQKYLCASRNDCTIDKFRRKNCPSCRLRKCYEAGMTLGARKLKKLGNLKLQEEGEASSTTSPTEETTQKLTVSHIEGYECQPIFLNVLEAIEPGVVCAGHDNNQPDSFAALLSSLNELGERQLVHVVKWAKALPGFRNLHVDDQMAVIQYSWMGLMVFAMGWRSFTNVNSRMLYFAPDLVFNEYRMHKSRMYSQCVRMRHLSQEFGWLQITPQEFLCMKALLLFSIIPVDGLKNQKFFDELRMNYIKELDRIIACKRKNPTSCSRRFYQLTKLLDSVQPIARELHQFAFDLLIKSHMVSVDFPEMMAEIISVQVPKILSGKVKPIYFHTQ

[2] = tested on: LN-AR(HR) cell line tumors; assay: LN-AR(HR) cell line tumors in SCID mice (FIG. 19); assay type: in vivo; details: 10 mg per kg body weight per day
Excerpt: (A) The relative tumor volume as a function of time shown for each set of mice. (B) Images of each set of mice with photon emission associated with luciferase activity at day 31 shown as color contours. (C) Rate of photon emission associated with luciferase activity shown at several times for each set of mice.

LIAR cell line = assay: Luciferase activity of the LIAR cell line (FIG. 25); assay type: cell-based; details: 125 nmol to 1000 nmol
Excerpt: FIG. 25 is a graph of luciferase activity of the LIAR cell line dosed with various compounds administered at concentrations ranging from 125 nmol to 1000 nmol.
The inventors have determined that what might appear to be a small change in the structure of hydantoin compounds may result in a large change in that compound's performance in treating prostate cancer.

urogenital tract = assay: Luciferase transgenic mice with testosterone pellet, urogenital tract weight and photon emission (FIG. 22); assay type: in vivo; details: castrated mice with testosterone pellet, 10 mg/kg per day, 14 days
Procedure: FIG. 22 presents results of an experiment conducted with wild type nontransgenic mice (WT), castrated luciferase transgenic mice (Cast), and non-castrated luciferase transgenic mice (Intact). Data are shown for castrated luciferase transgenic mice treated with an implanted testosterone pellet yielding 12.5 mg per kilogram body weight with a 90 day release period (T/Cast), and data are shown for non-castrated luciferase transgenic mice treated with an implanted testosterone pellet yielding 12.5 mg per kilogram body weight with a 90 day release period (Intact+T). […]. (A) Urogenital tract weight at 14 days. (B) Photon emission rate at 14 days. In all cases, a hormone refractory disease state was not induced.
[…]. Moreover, the higher the dose, the lower the PSA level. […]. The weight and rate of photon emission increased for both intact and castrated mice.

AR = target: T2, AR (Homo sapiens, UniProt P10275); assay type: cell-based; parameters: Fold induction, AR response reporter
T2 sequence (P10275 1-920): T1 sequence (P10275 1-920 T878A) with A878T
Procedure: It is well established that PSA levels are indicators of AR activities in prostate cancer. […] The LNCaP-AR cells are a line of lymph node carcinoma of prostate cells transduced with a plasmid that makes express androgen receptors. […] After four days incubation, secreted PSA levels were assayed using PSA ELISA kits (American Qualex, San Clemente, Calif.)

**Q.** What does the source list for `CNC(=O)c1ccc(N2C(=S)N(c3ccc(C#N)c(C(F)(F)F)c3)C(=O)C23CCC3)cc1F` [NC53, N-methyl-4-[7-(4-cyano-3-trifluoromethylphenyl)-8-oxo-6-thioxo-5,7-diaza-spiro[3.4]oct-5-yl]-2-fluorobenzamide]?
**A.** rate of tumor growth (tumor volume) ([1]; 10 mg/kg per day, FIG. 6): slower than mice treated with vehicle solution; PSA levels ([1]; FIG. 16, relative to vehicle solution): PSA levels decreased; androgen receptor nuclear translocation (androgen receptor): inhibited androgen receptor nuclear translocation; tumor size and photon emission associated with luciferase activity [2]: decrease or stabilization of tumor size and a decrease in photon emission associated with luciferase activity; luciferase activity (comparison) (LIAR cell line): less than the luciferase activity upon exposure to NC98; urogenital tract weight and photon emission (urogenital tract): decrease in weight and photon emission; PSA levels of LN-AR cells (AR; 100, 200, 500, and 1000 nM, FIG. 20): PSA levels of LN-AR cells decreased; PSA levels (AR; LN-AR cells, FIG. 23): PSA levels decreased
